Reference: patent US10732171B2, “Human skin sample methods and models for validating hypotheses for mechanisms driving skin pigmentation” (The Procter & Gamble Company, priority 2011, dated 2020)

Legend:
[1] = tested on: facial skin tone (spots, melanin evenness); assay: 9-week clinical study, randomized, double-blind, vehicle-controlled, split-face; assay type: in vivo, human
Excerpt: For example, hexyldecanol was compared to vehicle controls and positive controls (5% Niacinamide+1% undecylenoyl phenylalanine) through a 9-week period. Specifically the trial included a 9-week clinical study with a randomized, double-blind, round robin, vehicle-controlled, split-face design, including one week normalization period whereby 330 subjects received test product.

[2] = tested on: rat melanoma line known to produce melanin; assay: total melanin assay in melanoma cell culture; assay type: cell-based; settings: rat melanoma cell cultures; compared to controls
Method: (§1) The ex-vivo screening method has provided identification of agents consistent with in-vitro studies and which have proven positive clinically. One such example is hexyldecanol. […] For example, total melanin assays were performed using a rat melanoma line known to produce melanin. […] Therefore, promising tone agents such as hexyldecanol identified from the in-vitro model and the ex-vivo model have been tested in clinical settings.

tone genes = assay: Human Ex-vivo Pre-Clinical Model, fold regulation changes by clinical formulations; assay type: cell-based; settings: FIGS. 25a and 25b
Method: FIGS. 25a and 25b show two respective tables showing ex-vivo model fold regulation changes indicating significant down-regulation by clinical formulations in the Human Ex-vivo Pre-Clinical Model.
as §1

tone genes of interest = assay: ex-vivo tissue culture exposed to compounds known to stimulate the pigmentation pathway, tone gene regulation; assay type: cell-based, human; settings: p≤0.1, minimum of 2-10 experiments each
9 epidermal tone genes [3] = assay: Stem Cell Factor/Endothelin 1 driven ex-vivo human skin tissue, regulation of tone genes vs untreated control; assay type: cell-based; settings: number of the 9 epidermal genes regulated, Stem Cell Factor/Endothelin 1 driven tissue sample, 37° C. and 70% humidity
Method: Referring to FIGS. 19 to 23, examples (of 2-10 experiments each) are shown for the regulation of the 9 epidermal tone genes against an untreated control in ex-vivo tissue driven by the combination of Stem Cell Factor and Endothelin at 37° C. and 70% humidity for niacinamide, hexamidine, N-Acetyl glucosamine, kojic acid, tranexamic acid, and undecylenoyl phenylalanine. […] For instance, out of the 9 epidermal genes, at least one compound (undecylenoyl phenylalanine) regulated 5 genes (with a statistical significance of p<0.1 or better) while two compounds regulated 2 or fewer genes (with a p<0.1 or better). Table 2 below summarizes the number of epidermal genes regulated by certain materials in a Stem Cell Factor/Endothelin 1 driven tissue sample with a statistical significance of p≤0.1.
In example embodiments, tone is driven by application of stem cell factor and/or endothelin (with skin preparation, culturing, and mRNA processing being completed as previously described). In an example embodiment, skin samples are placed within 6-well plates, with 2.5 ml of media per well. A concentration of eighty nanograms per milliliter of stem cell factor as well as eighty nanograms per milliliter of endothelin was applied to tissue in the wells, with the media being refreshed daily. The culture was maintained for seven days. […]

9 epidermal tone genes [4] = assay: endogenously driven ex-vivo human skin tissue, regulation of tone genes (mRNA/PCR) vs untreated control; assay type: cell-based; settings: number of epidermal genes regulated, endogenously driven tissue sample, 37° C. and 70% humidity, 2-10 experiments each
Method: Referring to FIGS. 11 to 15, examples are shown for the regulation of the 9 epidermal tone genes against an untreated control in an endogenously driven ex-vivo tissue system at 37° C. and 70% humidity for niacinamide, hexamidine, N-Acetyl glucosamine, kojic acid, tranexamic acid, and undecylenoyl phenylalanine (2-10 experiments each). […] For instance, out of the 9 epidermal genes, at least one compound (Hexamidine) regulated 9 genes (with a statistical significance of p<0.1 or better) while two compounds regulated 5 or fewer genes (with a p<0.1 or better). Table 1 below summarizes the number of epidermal genes regulated by certain materials in an endogenously driven tissue sample with a statistical significance of p≤0.1.
Culturing involved setting up culture plates: putting 2.5 ml of media or treatment into each well of a 6-well tissue plate, adding one Millicell culture insert to each well, and putting 100 μl of 1×DMEM on the center of each insert membrane. Squares were selected randomly placed into each of the inserts (one piece of skin per insert), on top of the media on the membrane. The plates were stored at either 33° C. (though an additional non-limiting example would be 37° C. depending on the experiment endpoint). […]
Culture and treatment of the model comprised replicates of n=5 (though replicates of additional quantities may be used such as n=6). […]

CCCCCCCCC(CO)CCCCCC (stereo not drawn) [Hexyldecanol, hexyldecanol]
overall comparison to vehicle ([1]; significant if p<0.10 (1-sided) vs. vehicle): statistically better than vehicle controls | melanin evenness ([1]; versus vehicle control): significantly different from controls | spot area fraction (total area of spots per face) ([1]; versus vehicle control): decreased versus the control group | total melanin produced [2]: decreased total melanin | gene regulation in ex-vivo model (tone genes): down-regulation

Stem Cell Factor: compound known to stimulate the pigmentation pathway; paracrine agent
regulation of tone genes of interest (tone genes of interest): up regulate one or more tone genes of interest

tranexamic acid
# of Genes with p ≤ 0.1 (9 epidermal tone genes [3]): 3 | # Genes (out of 9) with p ≤ 0.1 (9 epidermal tone genes [4]): 7

α-MSH [reference compound]
regulation of tone genes of interest (tone genes of interest): up regulate one or more tone genes of interest
